Where two headings read alike, the source gives them in different places.
Assays:
[1] = molecular target: T1, β-catenin/BCL9 protein-protein [β-catenin/BCL9蛋白-蛋白] (Homo sapiens, UniProt P35222); assay: β-catenin/BCL9 protein-protein affinity, fluorescence polarisation (Example 71); type: binding; conditions: better than compound c
T1 construct: β-catenin(1-781)
T1 sequence (P35222 1-781): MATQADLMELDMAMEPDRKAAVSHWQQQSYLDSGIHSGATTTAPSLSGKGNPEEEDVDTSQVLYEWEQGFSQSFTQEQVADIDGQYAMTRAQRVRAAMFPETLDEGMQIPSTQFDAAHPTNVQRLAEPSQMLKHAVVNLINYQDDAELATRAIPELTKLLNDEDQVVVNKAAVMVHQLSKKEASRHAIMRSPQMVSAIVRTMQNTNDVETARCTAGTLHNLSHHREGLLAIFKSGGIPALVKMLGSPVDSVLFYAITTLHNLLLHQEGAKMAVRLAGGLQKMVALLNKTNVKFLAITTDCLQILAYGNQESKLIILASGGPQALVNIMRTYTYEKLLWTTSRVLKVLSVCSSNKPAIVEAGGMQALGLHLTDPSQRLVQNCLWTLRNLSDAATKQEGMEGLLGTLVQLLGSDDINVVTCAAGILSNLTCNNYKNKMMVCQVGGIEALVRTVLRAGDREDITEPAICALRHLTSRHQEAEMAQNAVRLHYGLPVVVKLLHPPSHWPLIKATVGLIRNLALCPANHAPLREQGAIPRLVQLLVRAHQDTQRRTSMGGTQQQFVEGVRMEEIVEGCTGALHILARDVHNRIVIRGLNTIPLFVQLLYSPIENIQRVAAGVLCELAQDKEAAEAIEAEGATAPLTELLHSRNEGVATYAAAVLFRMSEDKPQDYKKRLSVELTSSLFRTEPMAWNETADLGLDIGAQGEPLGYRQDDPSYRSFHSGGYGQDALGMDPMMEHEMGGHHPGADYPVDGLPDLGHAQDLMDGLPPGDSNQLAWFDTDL

[2] = molecular target: T2, hERG potassium channel [hERG钾离子通道] (Homo sapiens, UniProt Q12809); assay: hERG potassium channel, whole-cell patch clamp (Example 73); type: cell-based
T2 construct: expressed in transfected cells; host or cells: HEK293 (stably transfected)
T2 sequence (Q12809 whole entry): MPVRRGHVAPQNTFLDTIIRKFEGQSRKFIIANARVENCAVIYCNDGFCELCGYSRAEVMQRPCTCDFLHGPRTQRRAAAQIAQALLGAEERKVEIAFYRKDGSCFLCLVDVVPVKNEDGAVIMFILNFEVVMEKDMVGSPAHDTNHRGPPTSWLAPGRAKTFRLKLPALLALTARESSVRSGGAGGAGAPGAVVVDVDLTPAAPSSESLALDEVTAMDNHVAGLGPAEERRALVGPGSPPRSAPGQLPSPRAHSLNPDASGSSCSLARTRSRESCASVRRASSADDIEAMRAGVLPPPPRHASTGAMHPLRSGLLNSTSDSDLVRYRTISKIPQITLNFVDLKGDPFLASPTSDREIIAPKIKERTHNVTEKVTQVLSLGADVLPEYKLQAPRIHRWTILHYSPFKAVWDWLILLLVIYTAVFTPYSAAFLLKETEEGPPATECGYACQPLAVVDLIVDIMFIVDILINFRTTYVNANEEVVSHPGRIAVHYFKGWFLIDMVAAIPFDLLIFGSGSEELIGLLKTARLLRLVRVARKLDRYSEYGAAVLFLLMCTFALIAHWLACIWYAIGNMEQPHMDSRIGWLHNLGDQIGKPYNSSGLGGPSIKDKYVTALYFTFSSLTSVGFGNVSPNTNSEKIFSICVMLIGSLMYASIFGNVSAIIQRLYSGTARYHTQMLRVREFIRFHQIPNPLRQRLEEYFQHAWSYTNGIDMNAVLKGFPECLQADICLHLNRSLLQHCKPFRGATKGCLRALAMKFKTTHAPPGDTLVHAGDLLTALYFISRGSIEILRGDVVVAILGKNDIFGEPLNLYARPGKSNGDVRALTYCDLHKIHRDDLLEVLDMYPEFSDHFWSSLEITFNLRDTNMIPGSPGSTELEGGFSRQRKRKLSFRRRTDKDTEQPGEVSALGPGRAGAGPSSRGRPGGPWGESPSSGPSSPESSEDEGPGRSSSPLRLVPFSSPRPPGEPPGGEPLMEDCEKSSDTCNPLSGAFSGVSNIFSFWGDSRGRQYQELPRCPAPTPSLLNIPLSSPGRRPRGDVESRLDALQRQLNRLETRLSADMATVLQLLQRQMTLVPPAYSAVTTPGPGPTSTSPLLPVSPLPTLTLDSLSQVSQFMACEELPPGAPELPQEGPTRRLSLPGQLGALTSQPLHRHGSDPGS

[3] = tested on: CT26 colon cancer cells in BALB/c mice [CT26结肠癌细胞]; assay: In vivo experiment 1: CT26 colon cancer mouse model, II-25 and II-27 (Example 76); conditions: 30mg/kg once daily; for inhibition of tumour growth: after 5 days of dosing
[4] = Liver microsome metabolic stability (Example 75); type: in vitro ADME; conditions: 0.5 mg/mL liver microsomal protein, 1μM, NADPH, 37℃
[5] = tested on: HEK293 human normal cells [HEK293人正常细胞]; conditions: 10μM
[6] = tested on: HCT-116, CT-26, SW480, A549, RKO cells [人结肠癌细胞HCT-116、人结肠癌细胞CT-26、人结肠癌细胞SW480、人肺癌细胞A549、人结肠腺癌细胞RKO]; assay: CCK-8 antiproliferative activity of II-39, cancer cell panel (Example 72, part 2); type: cell-based, human; conditions: 10μM
[7] = tested on: CT-26 cells; assay: CCK-8 antiproliferative activity of II-39, CT-26; type: cell-based, human; conditions: 10μM
[8] = tested on: CT26 colon cancer cells in BALB/c mice [CT26结肠癌细胞]; assay: In vivo experiment 2: CT26 colon cancer mouse model, II-39 (Example 76)
[9] = whole-cell patch clamp, HEK293 cells stably transfected, room temperature, read-out: hERG IC50

Compound | affinity activity compared with reference compound c [1] | IC50 [2] | tolerability / safety [3] | inhibition of tumour growth [3] | IC50 [2, 9] | liver microsome metabolic stability ([4]; Table 4) | effect on normal cells [5] | anti-colon-cancer activity [6] | liver microsome metabolic stability ([4]; Table 5) | antiproliferative activity compared with ICG-001 [7] | body weight ([8]; II-39 30mg/kg i.p. once daily) | tolerability / safety ([8]; II-39 30mg/kg i.p. once daily) | tumour inhibition in combination with PD-1 antibody ([8]; II-39 30mg/kg i.p. once daily + PD-1 antibody 10mg/kg i.p. twice a week) | inhibition of colon cancer growth ([8]; II-39 30mg/kg intraperitoneal once daily) | TGI ([8]; combination: II-39 30mg/kg i.p. once daily + PD-1 antibody 10mg/kg i.p. twice a week)
Cc1ccc(-c2cccc(S(=O)(=O)N3CCCC(c4cccc(OC(C)(C)C(=O)N5CCNCC5)c4)C3)c2)cc1C.Cl (stereo not shown) [化合物II-25, 4-(2-(3-(1-((3',4'-二甲基-[1,1'-联苯]-3-基)磺酰基)哌啶-3-基)苯氧基)-2-甲基丙酰基)哌嗪-1-氯化铵] | 亲和活性更优 | > 10 µM | 动物耐受,安全性良好 | 可显著抑制小鼠体内肿瘤的生长 |  |  |  |  |  |  |  |  |  |  | 
Cc1ccc(-c2cccc(S(=O)(=O)N3CCCC(c4cccc(OC(C)(C)C(=O)NS(=O)(=O)c5ccccc5)c4)C3)c2)cc1C (stereo not shown) [化合物II-27, 2-(3-(1-((3',4'-二甲基-[1,1'-联苯基]-3-基)磺酰基)哌啶-3-基)苯氧基)-2-甲基-N-(苯磺酰基))丙酰胺] | 亲和活性更优 |  | 动物耐受,安全性良好 | 可显著抑制小鼠体内肿瘤的生长 | > 10 µM | 肝微粒体代谢稳定 |  |  |  |  |  |  |  |  | 
CC(C)c1ccc(-c2cccc(S(=O)(=O)N3CCCC(c4cccc(OC(C)(C)C(=O)NS(=O)(=O)c5ccccc5)c4)C3)c2)cc1 (stereo not shown) [化合物II-28, 2-(3-(1-((4'-异丙基-[1,1'-联苯基]-3-基)磺酰基)哌啶-3-基)苯氧基)-2-甲基-N-(苯磺酰基)丙酰胺] | 亲和活性更优 |  |  |  | > 10 µM | 肝微粒体代谢稳定 |  |  |  |  |  |  |  |  | 
CC(C)c1ccc(-c2cccc(S(=O)(=O)N3CCCC(c4cccc(OC(C)(C)C(=O)NS(=O)(=O)c5ccc(C(F)(F)F)cc5)c4)C3)c2)cc1 (stereo not shown) [化合物II-39, 2-(3-(1-((4'-异丙基-[1,1'-联苯]-3-基)磺酰基)哌啶-3-基(苯氧基)-2-甲基-N-((4-(三氟甲基)苯基)磺酰)丙酰胺] |  |  |  |  | > 10 µM |  | 没有影响 | 表现出较好的抗结肠癌活性 | 肝微粒体代谢稳定 | 显著的优于阳性对照药ICG-001 | 未观察到小鼠体重有明显减轻 | 动物耐受,安全性良好 | 肿瘤得到进一步的抑制 | 可以很好的抑制结肠癌的生长 | 81.1%
